Test results taken from patent US20240132431A1, “METHOD FOR ALKYLATING ACIDIC FUNCTIONAL GROUP” (Chugai Seiyaku Kabushiki Kaisha, priority 2021, published 2024).
One block for each compound: values may come before it.

Target: T1, Bcl-2 protein (Recombinant Human Bcl-2 Protein) (Homo sapiens, UniProt P10415)
T1 construct: purchased Novus NBP2-34889
Assay: Binding evaluation of mixture library compounds to Bcl-2 using AS-MS (affinity selection mass spectrometry)
Conditions: for ASMS ratio (%) n = 1 / ASMS ratio (%) n = 2: ASMS Ratio(%)=(A−C)/B×100; for ASMS ratio (%) n = 1: replicate n = 1; for ASMS ratio (%) n = 2: replicate n = 2
Outline: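 Readout is ASMS Ratio (%), (A−C)/B×100, from reversed-phase LC/MS of SEC-passed extracts, with protein-free unfiltered standard (B) and protein-free SEC blank (C). Recombinant human Bcl-2 at 20 μM final met ~1200 pooled compounds at […] each for 1 h, 23° C., dark, in Tris-HCl pH 7.4 buffer.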

[1] = AS-MS, mixture of 1200 compounds, Bcl-2
[2] = AS-MS on the mixture of 1200 library compounds

T1 sequence (P10415 whole entry): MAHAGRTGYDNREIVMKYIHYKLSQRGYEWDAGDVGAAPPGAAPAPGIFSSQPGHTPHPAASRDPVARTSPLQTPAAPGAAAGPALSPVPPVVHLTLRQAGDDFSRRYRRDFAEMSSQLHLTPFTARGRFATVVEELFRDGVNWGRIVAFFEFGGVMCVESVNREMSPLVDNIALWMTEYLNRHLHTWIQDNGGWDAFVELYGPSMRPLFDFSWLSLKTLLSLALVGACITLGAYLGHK

Compound: CCOc1cncc(-c2csc(C(=O)N3CCN(c4ccc(C(=O)NCC(F)(F)F)nn4)CC3)c2)c1 [B1K002-01, 6-[4-[4-(5-Ethoxypyridin-3-yl)thiophene-2-carbonyl]piperazin-1-yl]-N-(2,2,2-trifluoroethyl)pyridazine-3-carboxamide]
ASMS ratio (%) n = 1 [1]: 0.0% | ASMS ratio (%) n = 2 [1]: 0.0%

Compound: CCOc1cccc(C#Cc2ccccc2CN2CCN(c3ccc(C(=O)N(CC)CC)cc3)CC2)c1 [B4J069-01, 4-[4-[[2-[2-(3-Ethoxyphenyl)ethynyl]phenyl]methyl]piperazin-1-yl]-N,N-diethylbenzamide]
ASMS ratio (%) n = 1 (AS-MS, mixture library, Bcl-2): 1.8% | ASMS ratio (%) n = 2 (AS-MS, mixture library, Bcl-2): −0.8%

Compound: CCOc1cccc(-c2ccc(CN3CCN(c4ccc(C(=O)NS(C)(=O)=O)cc4)CC3)c(OC)c2)c1 [B2I053-01]
ASMS ratio (%) (n = 1): 0.0% | ASMS ratio (%) (n = 2): 0.0%

Compound: 6-[4-[3-tert-Butyl-5-(5-ethoxypyridin-3-yl)benzoyl]piperazin-1-yl]-N-propylpyridazine-3-carboxamide [B1M061-01]
ASMS ratio (%) n = 1 [1]: −3.3% | ASMS ratio (%) n = 2 [1]: −13.1%

Compound: CCOc1cccc(C#Cc2cncc(C(=O)N3CCN(c4ccc(C(=O)NCC56CC7CC(CC(C7)C5)C6)nn4)CC3)c2)c1 [B1A009-01, N-(1-Adamantylmethyl)-6-[4-[5-[2-(3-ethoxyphenyl)ethynyl]pyridine-3-carbonyl]piperazin-1-yl]pyridazine-3-carboxamide]
ASMS ratio (%) n = 1 [1]: 3.0% | ASMS ratio (%) n = 2 [1]: 0.0%

Compound: CCOc1cccc(-c2cnn(-c3cc(C(=O)N4CCN(c5ccc(C(=O)NS(C)(=O)=O)cc5)CC4)cc(C(F)(F)F)c3)c2)c1 [B2I043-01, 4-[4-[3-[4-(3-Ethoxyphenyl)pyrazol-1-yl]-5-(trifluoromethyl)benzoyl]piperazin-1-yl]-N-methylsulfonylbenzamide]
ASMS ratio (%) (n = 1): 0.0% | ASMS ratio (%) (n = 2): 0.0%

Compound: CCOc1cncc(-c2cnn(-c3cc(C(=O)N4CCN(c5ccc(C(=O)NCC(F)(F)F)nn5)CC4)cc(C(F)(F)F)c3)c2)c1 [B1K022-01, 6-[4-[3-[4-(5-Ethoxypyridin-3-yl)pyrazol-1-yl]-5-(trifluoromethyl)benzoyl]piperazin-1-yl]-N-(2,2,2-trifluoroethyl)pyridazine-3-carboxamide]
ASMS ratio (%) n = 1 [1]: 1.4% | ASMS ratio (%) n = 2 [1]: 0.1%

Compound: CCOc1cncc(-c2cc(C(=O)N3CCN(c4ccc(C(=O)NS(C)(=O)=O)nn4)CC3)cc(C(C)(C)C)c2)c1 [B2I016-01, 6-[4-[3-tert-Butyl-5-(5-ethoxypyridin-3-yl)benzoyl]piperazin-1-yl]-N-methylsulfonylpyridazine-3-carboxamide]
ASMS ratio (%) n = 1 (AS-MS, mixture library, Bcl-2): 0.0% | ASMS ratio (%) n = 2 (AS-MS, mixture library, Bcl-2): 0.0%

Compound: CCOc1cncc(-c2ccc(C(=O)N3CCN(c4ccc(C(=O)NCC56CC7CC(CC(C7)C5)C6)cc4)CC3)cc2C)c1 [B1A026-01, N-(1-Adamantylmethyl)-4-[4-[4-(5-ethoxypyridin-3-yl)-3-methylbenzoyl]piperazin-1-yl]benzamide]
ASMS ratio (%) n = 1 [1]: 3.0% | ASMS ratio (%) n = 2 [1]: −2.9%

Compound: 4-[4-[3-tert-Butyl-5-(5-ethoxypyridin-3-yl)benzoyl]piperazin-1-yl]-N-propylbenzamide [B1M063-01]
ASMS ratio (%) n = 1 [1]: 0.4% | ASMS ratio (%) n = 2 [1]: −1.1%

Compound: CCOc1cncc(-c2ccc(C(=O)N3CCN(c4ccc(C(=O)NS(=O)(=O)CC56CC7CC(CC(C7)C5)C6)nn4)CC3)cc2F)c1 [B2A006-01, N-(1-Adamantylmethylsulfonyl)-6-[4-[4-(5-ethoxypyridin-3-yl)-3-fluorobenzoyl]piperazin-1-yl]pyridazine-3-carboxamide]
ASMS ratio (%) n = 1 (AS-MS, mixture library, Bcl-2): 0.0% | ASMS ratio (%) n = 2 (AS-MS, mixture library, Bcl-2): 0.0%

Compound: CCCNC(=O)c1ccc(N2CCN(Cc3ccc(-c4cncc(OCC)c4)cc3OC)CC2)nn1 [B1M100-01, 6-[4-[[4-(5-Ethoxypyridin-3-yl)-2-methoxyphenyl]methyl]piperazin-1-yl]-N-propylpyridazine-3-carboxamide]
ASMS ratio (%) n = 1 [2]: 0.5% | ASMS ratio (%) n = 2 [2]: −1.5%

Compound: CCOc1cccc(C#Cc2ccccc2CN2CCN(c3ccc(C(=O)NCC45CC6CC(CC(C6)C4)C5)nn3)CC2)c1 [B1A095-01, N-(1-Adamantylmethyl)-6-[4-[[2-[2-(3-ethoxyphenyl)ethynyl]phenyl]methyl]piperazin-1-yl]pyridazine-3-carboxamide]
ASMS ratio (%) n = 1 [1]: 0.3% | ASMS ratio (%) n = 2 [1]: −17.1%

Compound: CCOc1cccc(-c2ccc(CN3CCN(c4ccc(C(=O)NCC(F)(F)F)nn4)CC3)cc2F)c1 [B1K077-01, 6-[4-[[4-(3-Ethoxyphenyl)-3-fluorophenyl]methyl]piperazin-1-yl]-N-(2,2,2-trifluoroethyl)pyridazine-3-carboxamide]
ASMS ratio (%) n = 1 [1]: 2.4% | ASMS ratio (%) n = 2 [1]: −0.2%

Compound: CCOc1cccc(-c2ccc(CN3CCN(c4ccc(C(=O)N(CC)CC)cc4)CC3)c(OC)c2)c1 [B4J053-01, 4-[4-[[4-(3-Ethoxyphenyl)-2-methoxyphenyl]methyl]piperazin-1-yl]-N,N-diethylbenzamide]
ASMS ratio (%) n = 1 [2]: −0.1% | ASMS ratio (%) n = 2 [2]: −6.0%

Compound: CCOc1cncc(-c2ccc(CN3CCN(c4ccc(C(=O)NCC56CC7CC(CC(C7)C5)C6)cc4)CC3)c(OC)c2)c1 [B1A054-01, N-(1-Adamantylmethyl)-4-[4-[[4-(5-ethoxypyridin-3-yl)-2-methoxyphenyl]methyl]piperazin-1-yl]benzamide]
ASMS ratio (%) n = 1 [1]: 0.0% | ASMS ratio (%) n = 2 [1]: 0.0%

Continued, values first:

ASMS ratio (%) n = 1 (AS-MS, mixture library, Bcl-2): 17.5% | ASMS ratio (%) n = 2 (AS-MS, mixture library, Bcl-2): 4.4%
Compound: CCOc1cccc(-c2cc(CN3CCN(c4ccc(C(=O)NS(=O)(=O)c5ccc(NCCSc6ccccc6)c([N+](=O)[O-])c5)cc4)CC3)cc(OC(C)C)c2)c1 [B2Q057-01, 4-[4-[[3-(3-Ethoxyphenyl)-5-propan-2-yloxyphenyl]methyl]piperazin-1-yl]-N-[3-nitro-4-(2-phenylsulfanylethylamino)phenyl]sulfonylbenzamide]

ASMS ratio (%) (n = 1): 1.2% | ASMS ratio (%) (n = 2): −2.0%
Compound: CCOc1cncc(-c2ccc(C(=O)N3CCN(c4ccc(C(=O)NS(=O)(=O)CCC(F)(F)F)nn4)CC3)cc2C)c1 [B2N004-01, 6-[4-[4-(5-Ethoxypyridin-3-yl)-3-methylbenzoyl]piperazin-1-yl]-N-(3,3,3-trifluoropropylsulfonyl)pyridazine-3-carboxamide]

ASMS ratio (%) (n = 1): 3.9% | ASMS ratio (%) (n = 2): 0.0%
Compound: CCOc1cncc(-c2cc(OC)c(CN3CCN(c4ccc(C(=O)NS(=O)(=O)c5ccc(NCCSc6ccccc6)c(C(F)(F)F)c5)cc4)CC3)c(OC)c2)c1 [B2R060-01, 4-[4-[[4-(5-Ethoxypyridin-3-yl)-2,6-dimethoxyphenyl]methyl]piperazin-1-yl]-N-[4-(2-phenylsulfanylethylamino)-3-(trifluoromethyl)phenyl]sulfonylbenzamide]

ASMS ratio (%) n = 1 [2]: 3.8% | ASMS ratio (%) n = 2 [2]: 3.2%
Compound: CCOc1cccc(-c2cnn(-c3cc(C(=O)N4CCN(c5ccc(C(=O)N(CC)CC)cc5)CC4)cc(C(F)(F)F)c3)c2)c1 [B4J043-01, 4-[4-[3-[4-(3-Ethoxyphenyl)pyrazol-1-yl]-5-(trifluoromethyl)benzoyl]piperazin-1-yl]-N,N-diethylbenzamide]

ASMS ratio (%) n = 1 [2]: 1.7% | ASMS ratio (%) n = 2 [2]: −1.8%
Compound: CCOc1cncc(-c2ccc(CN3CCN(c4ccc(C(=O)N(C)CC56CC7CC(CC(C7)C5)C6)nn4)CC3)c(OC)c2)c1 [B3A080-01, N-(1-Adamantylmethyl)-6-[4-[[4-(5-ethoxypyridin-3-yl)-2-methoxyphenyl]methyl]piperazin-1-yl]-N-methylpyridazine-3-carboxamide]

ASMS ratio (%) n = 1 (AS-MS, mixture library, Bcl-2): 0.0% | ASMS ratio (%) n = 2 (AS-MS, mixture library, Bcl-2): 0.0%
Compound: CCOc1cccc(-c2cc(CN3CCN(c4ccc(C(=O)N(CC)CC)nn4)CC3)cc(OCC)c2)c1 [B4J081-01, 6-[4-[[3-Ethoxy-5-(3-ethoxyphenyl)phenyl]methyl]piperazin-1-yl]-N,N-diethylpyridazine-3-carboxamide]

ASMS ratio (%) (n = 1): 19.8% | ASMS ratio (%) (n = 2): −10.7%
Compound: CCOc1cncc(-c2ccc(CN3CCN(c4ccc(C(=O)NS(=O)(=O)c5ccc(NCCSc6ccccc6)c(C(F)(F)F)c5)cc4)CC3)c3ccccc23)c1 [B2R066-01, 4-[4-[[4-(5-Ethoxypyridin-3-yl)naphthalen-1-yl]methyl]piperazin-1-yl]-N-[4-(2-phenylsulfanylethylamino)-3-(trifluoromethyl)phenyl]sulfonylbenzamide]

ASMS ratio (%) n = 1 (AS-MS, mixture library, Bcl-2): 0.0% | ASMS ratio (%) n = 2 (AS-MS, mixture library, Bcl-2): 0.0%
Compound: CCOc1cncc(-c2cc(CN3CCN(c4ccc(C(=O)N(CC)CC)nn4)CC3)cc(OCC)c2)c1 [B4J082-01, 6-[4-[[3-Ethoxy-5-(5-ethoxypyridin-3-yl)phenyl]methyl]piperazin-1-yl]-N,N-diethylpyridazine-3-carboxamide]

ASMS ratio (%) n = 1 [2]: 13.4% | ASMS ratio (%) n = 2 [2]: −14.2%
Compound: CCOc1cccc(-c2cc(CN3CCN(c4ccc(C(=O)N(C)CC56CC7CC(CC(C7)C5)C6)nn4)CC3)cc(OCC)c2)c1 [B3A081-01, N-(1-Adamantylmethyl)-6-[4-[[3-ethoxy-5-(3-ethoxyphenyl)phenyl]methyl]piperazin-1-yl]-N-methylpyridazine-3-carboxamide]

ASMS ratio (%) (n = 1): 0.0% | ASMS ratio (%) (n = 2): 0.0%
Compound: CCOc1cccc(-c2ccc(CN3CCN(c4ccc(C(=O)NS(=O)(=O)c5ccc(NCCSc6ccccc6)c(C(F)(F)F)c5)nn4)CC3)cc2F)c1 [B2R077-01, 6-[4-[[4-(3-Ethoxyphenyl)-3-fluorophenyl]methyl]piperazin-1-yl]-N-[4-(2-phenylsulfanylethylamino)-3-(trifluoromethyl)phenyl]sulfonylpyridazine-3-carboxamide]
